Data published in patent US12427192B2, “Water soluble adjuvant and composition containing same” (Sumitomo Pharma Co., Ltd., priority 2019, dated 2025).

Tests used:
[1] = target: T1, human TLR7 (Homo sapiens, UniProt Q9NYK1); test: Human TLR7 reporter gene assay (TLR7/NF-κB/SEAPorter HEK293 cell line), Tests 1 and 21; format: cell-based; conditions: Test 1; TLR7/NF-κB/SEAPorter HEK293 cell line; half of maximal SEAP induction; 24-hour incubation, 0.1% DMSO; read-out: EC50
T1 construct: expresses full-length human TLR7 and secretory alkaline phosphatase (SEAP) reporter gene; host or cells: HEK293 (TLR7/NF-κB/SEAPorter)
T1 sequence (Q9NYK1 27-1049): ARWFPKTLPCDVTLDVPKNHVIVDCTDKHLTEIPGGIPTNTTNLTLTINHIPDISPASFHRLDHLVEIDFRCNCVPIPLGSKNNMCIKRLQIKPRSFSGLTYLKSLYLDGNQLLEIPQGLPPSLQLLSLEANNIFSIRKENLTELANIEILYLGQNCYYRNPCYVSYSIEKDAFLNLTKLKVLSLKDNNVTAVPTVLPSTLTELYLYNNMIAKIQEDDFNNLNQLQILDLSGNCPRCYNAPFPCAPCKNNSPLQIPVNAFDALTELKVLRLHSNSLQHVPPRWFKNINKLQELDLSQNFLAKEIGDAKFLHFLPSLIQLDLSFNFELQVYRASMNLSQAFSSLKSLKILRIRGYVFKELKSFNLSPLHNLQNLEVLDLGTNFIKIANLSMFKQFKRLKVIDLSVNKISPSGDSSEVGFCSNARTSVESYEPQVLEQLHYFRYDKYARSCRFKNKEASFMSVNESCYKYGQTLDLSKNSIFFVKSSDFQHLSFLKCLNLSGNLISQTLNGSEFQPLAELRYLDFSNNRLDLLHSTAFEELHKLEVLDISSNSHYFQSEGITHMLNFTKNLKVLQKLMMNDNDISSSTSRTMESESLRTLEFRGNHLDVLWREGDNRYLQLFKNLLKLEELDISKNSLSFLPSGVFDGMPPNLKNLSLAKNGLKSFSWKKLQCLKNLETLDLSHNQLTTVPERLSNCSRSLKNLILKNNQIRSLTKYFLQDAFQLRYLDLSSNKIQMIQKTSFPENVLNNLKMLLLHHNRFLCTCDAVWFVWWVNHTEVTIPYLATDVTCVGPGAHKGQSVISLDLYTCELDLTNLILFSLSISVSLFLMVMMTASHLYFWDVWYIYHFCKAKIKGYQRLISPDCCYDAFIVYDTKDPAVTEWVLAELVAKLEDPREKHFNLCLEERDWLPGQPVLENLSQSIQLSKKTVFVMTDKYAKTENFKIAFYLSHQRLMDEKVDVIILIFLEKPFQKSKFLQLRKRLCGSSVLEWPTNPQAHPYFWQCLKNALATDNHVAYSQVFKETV
Description: Human TLR7 Reporter Gene Assay
TLR7/NF-κB/SEAPorter™ HEK293 cell line (Imgenex Corporation) is a stably co-transfected cell line which expresses full-length human TLR7 and secretory alkaline phosphatase (SEAP) reporter gene under the transcriptional regulation of an NF-κB response element. The TLR7 expression of the cell line has been already tested by flow cytometry. Transfectants with stable expression were selected using the antibiotic blasticidin and Geneticin. TLR signaling leads to the translocation of NF-κB and the activation of the promoter results in expression of the SEAP gene. TLR7-specific activation was assessed by determining the level of SEAP produced following 24-hour incubation of the cells at 37° C. with each compound prepared in Examples and Reference examples in the presence of 0.1% (v/v) dimethylsulfoxide (DMSO). The human TLR7 activity for the present compound was assessed by human TLR7 reporter gene assay, and the results are shown in Tables 3 and 4 as the compound concentration which produced half of the maximal level of SEAP induction (EC50)
According to the method of Test 1, human TLR7 reporter gene assay was done with the following samples, and the result was shown in the table below.

[2] = target: T2, mouse TLR7 (Mus musculus, UniProt P58681); test: Mouse TLR7 reporter gene assay (HEK-Blue mTLR7 cell line), Test 2; format: cell-based; conditions: half of maximal SEAP induction, 20-24-hour incubation, 0.1% DMSO
T2 construct: expresses full-length mouse TLR7 and secretory SEAP reporter gene; host or cells: HEK-Blue mTLR7 (HEK293-derived)
T2 sequence (P58681 27-1050): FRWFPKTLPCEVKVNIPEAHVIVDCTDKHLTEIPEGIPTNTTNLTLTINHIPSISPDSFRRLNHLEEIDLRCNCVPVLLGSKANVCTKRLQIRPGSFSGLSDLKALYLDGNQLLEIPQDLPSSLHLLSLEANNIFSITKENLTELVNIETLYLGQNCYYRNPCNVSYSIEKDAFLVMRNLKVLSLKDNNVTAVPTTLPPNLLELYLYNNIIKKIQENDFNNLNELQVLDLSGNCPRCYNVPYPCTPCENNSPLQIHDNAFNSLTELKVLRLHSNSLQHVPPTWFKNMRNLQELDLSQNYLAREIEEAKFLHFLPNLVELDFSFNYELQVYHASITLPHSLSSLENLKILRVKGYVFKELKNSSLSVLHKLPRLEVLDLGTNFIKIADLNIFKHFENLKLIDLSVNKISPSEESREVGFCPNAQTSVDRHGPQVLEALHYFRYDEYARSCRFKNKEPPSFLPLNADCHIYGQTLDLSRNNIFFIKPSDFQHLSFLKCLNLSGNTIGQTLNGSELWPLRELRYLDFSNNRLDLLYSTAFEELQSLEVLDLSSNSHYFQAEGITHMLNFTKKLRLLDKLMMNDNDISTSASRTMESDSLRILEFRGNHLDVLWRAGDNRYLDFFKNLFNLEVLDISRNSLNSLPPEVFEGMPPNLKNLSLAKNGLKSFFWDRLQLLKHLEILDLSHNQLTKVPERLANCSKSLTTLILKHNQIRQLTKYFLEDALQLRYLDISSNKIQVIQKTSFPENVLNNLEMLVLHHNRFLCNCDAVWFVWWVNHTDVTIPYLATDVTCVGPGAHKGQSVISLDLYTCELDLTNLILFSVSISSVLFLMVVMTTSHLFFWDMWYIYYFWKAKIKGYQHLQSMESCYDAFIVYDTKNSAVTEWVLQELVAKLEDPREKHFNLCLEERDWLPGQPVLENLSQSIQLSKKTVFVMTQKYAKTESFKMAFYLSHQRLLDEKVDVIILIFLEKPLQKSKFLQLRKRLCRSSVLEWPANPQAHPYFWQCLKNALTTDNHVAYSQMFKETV
Description: Test 2 Mouse TLR7 Reporter Gene Assay
HEK-Blue™ mTLR7 cell line (Invivogen) is a stably co-transfected cell line which expresses full-length mouse TLR7 and secretory SEAP reporter gene under the transcriptional regulation of an NF-κB response element. The TLR7 expression of the cell line has been already tested by RT-PCR. Transfectants with stable expression were selected using the antibiotic blasticidin and Zeocin. TLR signaling leads to the translocation of NF-κB and the activation of the promoter results in expression of the SEAP gene. TLR7-specific activation was assessed by determining the level of SEAP produced following 20-24-hour incubation of the cells at 37° C. with each compound prepared in Examples and Reference examples in the presence of 0.1% (v/v) DMSO. The mouse TLR7 activity for the present compound was assessed by mouse TLR7 reporter gene assay, and the results are shown in Tables 5 and 6 as the compound concentration which produced half of the maximal level of SEAP induction (EC50).

EC50 [1] | EC50 [2] | Compound
50 nM | 15 nM | CCCCCNc1nc(N)nc(C)c1Cc1ccc(CNC)cc1OC [Reference example 12, 5-({2-methoxy-4-[(methylamino)methyl]phenyl}methyl)-6-methyl-N^4-pentylpyrimidine-2,4-diamine, reference compound]
68 nM | 28 nM | CCCCCNc1nc(N)nc(C)c1Cc1ccc(CN(C)CCOCCOCCOCCOCCO)cc1OC [Example 1, 1-(4-{[2-amino-4-methyl-6-(pentylamino)pyrimidin-5-yl]methyl}-3-methoxyphenyl)-2-methyl-5,8,11,14-tetraoxa-2-azahexadecan-16-ol·trifluoroacetate]
